The IC50 is the midpoint of a concentration-inhibition curve. A word on the inhibition: it is the share of the control response that was lost under treatment.

Consider 8 molecules from article PMC8178976, “A biocompatible stapling reaction for in situ generation of constrained peptides” (Chemical Science, 2020).

Like-named read-outs stand apart in the source and are kept apart here. Where a SMILES comes first, the peptide text is derived from it. [ ]: non-standard residue; d: D form. Dab = NCC[C@H](N)C(=O)O

Series [1] addresses Zika virus NS2B-NS3 protease (ZiPro) (Zika virus, UniProt A0A024B7W1). The series can be described thus: Zika virus NS2B-NS3 protease (ZiPro) inhibition assay. As to conditions: for IC50: purified compounds, dose-response curve assuming Hill slope of 1, 3-parameter fit. In kind it is biochemical. As to the method: Expression and purification of Zika virus protease NS2B-NS3 (ZiPro)
The unlinked Zika virus protease NS2B-NS3 construct referred to as bZiPro was obtained from Addgene (plasmid #86846) and expressed and purified exactly as described previously.1 Preparation of samples for ZiPro assay
Linear peptide samples 1a – 10a were prepared by adding 2 µl of 1a – 10a (10 mM in water) to 198 µl of buffer (10 mM Tris pH 7.5, 1 mM TCEP). The presence of TCEP is important to reduce cyclic disulfides. Stapled peptides 1b – 10b were prepared in situ by adding 2.5 µl of DCP (10 mM in DMSO) and 2 µl of 1a – 10a (10 mM in water) to 195.5 µl of buffer (10 mM Tris pH 7.5, 1 mM TCEP). Samples were incubated overnight, and the presence of stapled peptides 1b – 10b was confirmed by LC-MS (method B).
ZiP ro inhibition assay (Table 2)
The assay was conducted in 96-well plates (black U-bottom, Greiner Bio-One) in a total volume of 100 µl using 10 mM Tris pH 8.5, 1 mM CHAPS, 20% glycerol . All measurements were performed in triplicate. Purified peptides 1a – 10a and crude mixtures containing peptides 1b – 10b (prepared as described above) were incubated with ZiPro (0.3 nM) at final concentrations of 1 and 10 µM. The enzymatic reaction was initiated by addition of the substrate Bz-Nle-Ly s-Lys-Arg-A MC (Biosynt a n) at a final concentration of 5 µM.
Fluorescence was monitored by a fluorophotometer (Spectramax M2e plate reader, Molecular Devices) for 5 min at 460 nm using 360 nm excitation. Initial velocities were derived from the linear range, and 100% enzyme activity was defined as the initial velocity of blank wells containing no peptide. Percent inhibition was calculated as a fraction of 100% enzyme activity.
In situ stapling of 1b during ZiPro inhibition assay (Figure 3a)
All measurements were performed in triplicate. 2 µl of DCP (20 mM in DMSO) and 2 µl of 1a (10 mM in water) were mixed in 196 µl buffer (10 mM Tris pH 7.5, 4 mM TCEP). A blank was prepared by adding 2 µl of DCP (20 mM in DMSO) to 198 µl buffer (10 mM Tris pH 7.5, 4 mM TCEP). After 5 minutes, 10 µl of the reaction and blank mixtures were added to ZiPro (0.3 nM) in assay buffer (10 mM Tris pH 8.5, 1 mM CHAPS, 20% glycerol) to a total volume of 100 µl and incubated at room temperature. After incubation over 5, 20, 45, 90 and 180 minutes, substrate (5 µM) was added, and the enzyme activity was monitored as described above. Percent inhibition was calculated as a fraction of 100% enzyme activity considering each individual set of blanks.
Determination of IC50 values of 1a and 1b (Figure 3b-c)
All measurements were performed in triplicate using the ZiPro assay described above . Stock solutions (1 mM and 2 mM) of 1a were prepared in buffer (10 mM Tris pH 7.5, 4 m M T C EP) and used immediately. ZiPro inhibition of 1a was measured at 100, 50, 20, 5, 2. 5, 1, and 0. 5
µM. Stock solutions of purified 1b were made in water. ZiPro inhibition of 1b was measured at 50, 20, 5, 2.5, 1, 0.5, and 0.1 µM. The IC50 values were calculated using GraphPad Prism 8 using a 3 -parameter fit . […]

For series [2] the following is noted: the molecule shown is the open-chain precursor, crosslinker bond, 0.6 mM.

Sequence of Zika virus NS2B-NS3 protease (ZiPro) (A0A024B7W1 1503-1679): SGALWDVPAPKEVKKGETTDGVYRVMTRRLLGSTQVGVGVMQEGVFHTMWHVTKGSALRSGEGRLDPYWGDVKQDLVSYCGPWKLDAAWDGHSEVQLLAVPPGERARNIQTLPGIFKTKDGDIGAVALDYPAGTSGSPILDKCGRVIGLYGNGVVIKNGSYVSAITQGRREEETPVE
Sequence of Zika virus NS2B-NS3 protease (ZiPro) (A0A024B7W1 1417-1468): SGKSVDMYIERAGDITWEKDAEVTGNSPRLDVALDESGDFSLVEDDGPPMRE

With `N=C(N)NCCC[C@H](NC(=O)[C@H](CCCCN)NC(=O)[C@@H](N)CCNC(=O)[C@@H](N)CS)C(=O)N[C@@H](CCCCN)C(=O)N[C@@H](CCNC(=O)[C@@H](N)CS)C(N)=O` [1a] (H-[Dab](Cys)KRK[Dab](Cys)-NH2), it took 23 µM to reach half-maximal inhibition in series [1] (triplicate) (IC50). Also, in series [1] (purified linear peptides at 1 μM, ZiPro 0.3 nM, substrate 5 μM, 10 mM Tris pH 8.5, 1 mM CHAPS, 20% glycerol, triplicate, n.i. = no inhibition), the “ZiPro inhibition (%) 1 μM” value was “n.i”. In series [1] (purified linear peptides at 10 μM, ZiPro 0.3 nM, substrate Bz-Nle-Lys-Lys-Arg-AMC 5 μM, 10 mM Tris pH 8.5, 1 mM CHAPS, 20% glycerol, fluorescence, triplicate, n.i. = no inhibition), the inhibition at 10 µM was determined as 23 ± 4%.

Consider `N=C(N)NCCC[C@@H]1NC(=O)[C@H](CCCCN)NC(=O)[C@@H](N)CCNC(=O)[C@@H]2CSC(=N2)c2cccc(n2)C2=N[C@@H](CS2)C(=O)NCC[C@@H](C(N)=O)NC(=O)[C@H](CCCCN)NC1=O` [1b], for which, in series [1] (in situ stapled peptides (crude mixtures, no purification) after 24 h incubation with DCP, 1 μM, ZiPro 0.3 nM, substrate 5 μM, pH 8.5, triplicate, n.i. = no inhibition), the inhibition at 1 µM is 27 ± 4%. The inhibition at 10 µM in series [1] (in situ stapled peptides (crude mixtures, no purification) after 24 h incubation with DCP, 10 μM, ZiPro 0.3 nM, substrate 5 μM, pH 8.5, triplicate, n.i. = no inhibition) was determined as 60 ± 7%. The molecule also yielded an IC50 in series [1] (triplicate) of 0.8 µM. For the molecule `N#Cc1cccc(C#N)n1` [DCP, 2,6-dicyanopyridine, reference compound], the “effect of DCP on ZiPro activity” value in series [1] (concentrations of DCP used in the assay) was “no significant effect”. In series [2] (25-membered ring, 2,6-dicyanopyridine (2 eq)/TCEP, 10 mM Tris pH 7.5 (aq, MeOH from DCP stock)), H-Cys-Lys-Arg-Lys-Dab(Cys)-NH2? yielded a ring closure, conversion of 76%. In series [2] (24-membered ring, 2,6-dicyanopyridine (2 eq)/TCEP, 10 mM Tris pH 7.5 (aq, MeOH from DCP stock)), H-Cys-Lys-Arg-Lys-Dap(Cys)-NH2? displayed a ring closure, conversion of 83%. H-Cys-Lys-Arg-Lys-Lys(Cys)-NH2? came in with a ring closure, conversion in series [2] (27-membered ring, 2,6-dicyanopyridine (2 eq)/TCEP, 10 mM Tris pH 7.5 (aq, MeOH from DCP stock)) of 83%. In series [2] (26-membered ring, 2,6-dicyanopyridine (2 eq)/TCEP, 10 mM Tris pH 7.5 (aq, MeOH from DCP stock)), H-Cys-Lys-Arg-Lys-Orn(Cys)-NH2? displayed a ring closure, conversion of 79%.

Consider H-Dys-Lys-Arg-Lys-Dys-NH2, for which the ring closure, conversion in series [2] (30-membered ring, 2,6-dicyanopyridine (2 eq)/TCEP (6 eq), 10 mM Tris pH 7.5) is 93%; in series [2] (30-membered ring, 2,6-dicyanopyridine (2 eq)/TCEP, 10 mM Tris pH 7.5 (aq, MeOH from DCP stock)), 89%; in series [2] (30-membered ring, 2,6-dicyanopyridine (8 eq)/TCEP, 10 mM Tris pH 7.5) it was 60%.
